# Columns and labels:
# C. acremonium expandase = target: T1, C. acremonium expandase (Hapsidospora chrysogena, UniProt P11935); conditions: cited from earlier work
# T1 sequence (P11935 1-332): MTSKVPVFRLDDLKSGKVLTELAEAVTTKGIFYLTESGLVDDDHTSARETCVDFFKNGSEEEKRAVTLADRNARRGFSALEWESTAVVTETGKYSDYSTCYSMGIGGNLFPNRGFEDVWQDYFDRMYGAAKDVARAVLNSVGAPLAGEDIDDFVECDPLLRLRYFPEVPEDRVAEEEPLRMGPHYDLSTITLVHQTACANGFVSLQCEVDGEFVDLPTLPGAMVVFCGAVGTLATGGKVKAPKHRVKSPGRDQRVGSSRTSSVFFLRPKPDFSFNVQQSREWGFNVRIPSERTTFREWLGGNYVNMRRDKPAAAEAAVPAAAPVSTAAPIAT
# [1] = target: T2, S. clavuligerus expandase (Streptomyces clavuligerus, UniProt P18548); conditions: literature reports (Jensen 1982; Dotzlaf 1989; Yeh 1994; Maeda 1995); cited from earlier work
# T2 construct: The cells were resuspended in the same buffer and disrupted by four 25-sec. sonication treatments; endogenous in cells; host or cells: S. clavuligerus mutant NP1, crude cell-free extract
# [2] = target: T3, expandase from S. clavuligerus (Streptomyces clavuligerus, UniProt P18548); test: Ring expansion by cell-free extracts of S. lividans transformant pHJ11 (Example 7); format: biochemical; conditions: pHJ11 cell-free extract 6 mg/ml protein, substrate 5.6 mM, after 4 h of reaction
# T3 construct: made in house; host or cells: S. lividans 1326 transformed with pHJ11, crude cell-free extract
# Procedure: Microorganism, Medium and Culture Conditions: S. lividans 1326 was used in all experiments. Cultures were grown in 250 ml baffled flasks containing 40 ml of MST medium. Each flask was inoculated with 50 μl of a spore suspension (prepared and stored at −80° C. in 20% glycerol) and incubated at 30° C., 250 rpm, for 48 h.
# Plasmids: The plasmid pUL702-202a was a gift from J. F. Martin (University of León, Spain). This vector harboured a 4.3 Kb BglII fragment containing the epimerase and expandase genes from Nocardia lactamdurans inserted at the BglII site on pIJ702. The plasmid pHJ11 was constructed by cloning a 3 Kb BglII fragment containing the expandase gene from S. clavuligerus 3585 into pIJ702 at the BglII site.
# Ring Expansion Reaction: The ring expansion mixture contained 1.8 mM FeSO4, 1.28 mM α-ketoglutarate, 6 mg/ml protein (cell-free extract), 8 mM KCl, 8 mM MgSO4, 14 mM DTT and 50 mM TrisHCl (pH 7.4) in a final volume of 2.5 ml. Substrate concentration was 5.6 mM. Additions were made following the order established by Shen et al. (Enzyme Microb. Technol. 6:402-404, 1984). Reaction mixtures were incubated in test tubes at 220 rpm, 30° C. At different times, 0.5 ml samples were taken and the reaction was stopped by adding 0.5 ml of methanol. […] Biotransformation activity was detected by paper disc-agar diffusion bioassay. […]
# [3] = system: resting S. clavuligerus NP1 cells; test: Penicillin G ring expansion by resting cells grown on alcohol (Example 3); format: cell-based; conditions: 3 hours of reaction, 5.6 mM penicillin G; for Cephalosporin Production Specific: per mg DCW
# Procedure: Microorganisms, Media, and Culture Conditions: All experiments were done using S. clavuligerus NP1. Seed cultures were developed using 250 ml baffled flasks containing 40 ml of MST medium: 1% soluble starch (Sigma Chemical Co., St. Louis, Mo.); 3% Trypticase Soy Broth Without Dextrose (BBL, Cockeysville, Md.); 90 mM MOPS buffer, pH adjusted to 7.0 before autoclaving. Each flask was inoculated with 50 μl of a spore suspension (stored in 20% glycerol at −80° C.) and incubated at 30° C., 250 rpm for 48 h.
# From a seed culture, 4 ml were transferred to 500 ml baffled flasks containing 80 ml of MT medium (3% Trypticase Soy Broth Without Dextrose; 90 mM MOPS buffer, pH adjusted to 7.0 before autoclaving) with or without 1-2% ethanol or methanol. Alcohols were added just before inoculation. Cells were grown at 30° C., 250 rpm for 24 h. Mycelia from each flask were washed twice and, finally, resuspended in 10 ml of distilled water. Four ml of this cell suspension were used in the ring-expanding biotransformation.
# Ring Expansion: The ring expansion mixture contained 1.8 mM FeSO4, 1.28 mM α-ketoglutarate, 4 ml cell suspension, 5.6 mM penicillin G and 50 mM MOPS (pH 6.5) in a final volume of 10 ml contained in 250 ml baffled Erlenmeyer flasks. Additions were made in the order established by Shen et al. (Shen et al., Enzyme Microb. Technol. 17:231-234, 1984). Incubation was at 220 rpm and 30° C. for 1 to 3 h. Samples were collected and centrifuged. Biotransformation activity was detected by paper disc-agar diffusion bioassay.
# Detection of Expandase Activity: Expandase activity was detected by paper disc-agar diffusion bioassay. Two superimposed paper discs (¼ inch; Schleicher & Schuell, Keene, N.H.) were saturated with 100 μl of each supernatant or standard. After each application, the discs were allowed to dry for 30 min in a laminar hood and then placed on Petri plates containing 10 ml of LB (1% tryptone, 0.5% NaCl, 0.5% yeast extract, 0.1% glucose) 0.8% agar medium containing 50,000 IU/ml of penicillinase (Difco Bacto penase concentrate, Difco Laboratories, Detroit, Mich.) seeded with E. coli ESS (a β-lactam-supersensitive mutant). The plates were incubated overnight at 37° C. The penicillinase used is a narrow spectrum β-lactamase that destroys the substrate penicillin G but not cephalosporins. The diameters of zones of growth inhibition were measured and quantified with calibration curves using pure DAOG as standard.
# Dry Cell Weight (DCW) Assay: Two samples of 1 ml were taken from each cell suspension prepared in distilled water (10 ml), centrifuged (14,000×g, 10 min) and dried to constant weight at 65° C. The weights listed are those in the reaction mixture.
# [4] = cells grown in MT + 1% E (ethanol)
# [5] = cells grown in MT + 1% M (methanol)
# [6] = cells grown in MT + 2% E (ethanol)
# [7] = cells grown in MT + 2% M (methanol)
# T2 sequence (P18548 whole entry): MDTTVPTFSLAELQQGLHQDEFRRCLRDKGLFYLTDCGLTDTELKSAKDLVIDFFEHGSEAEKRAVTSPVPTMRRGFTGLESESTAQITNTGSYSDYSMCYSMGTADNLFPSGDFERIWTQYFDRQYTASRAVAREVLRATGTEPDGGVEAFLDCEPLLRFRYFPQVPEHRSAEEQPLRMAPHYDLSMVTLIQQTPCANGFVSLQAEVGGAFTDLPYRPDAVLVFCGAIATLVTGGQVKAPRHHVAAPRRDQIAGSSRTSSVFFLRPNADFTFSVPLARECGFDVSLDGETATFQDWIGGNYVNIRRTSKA
# T3 sequence (P18548 whole entry): as above
smiles,measurement,setting,value
"CC1(C)S[C@@H]2[C@H](NC(=O)Cc3ccccc3)C(=O)N2[C@H]1C(=O)O [Penicillin G, penicillin G]",substrate for expandase activity,C. acremonium expandase; crude extracts (Kohsaka et al. 1976; Demain et al.),not
same,ring expansion,C. acremonium expandase; partially purified enzyme (Kupka et al. 1983),does not expand
same,ring expansion,[1],not
same,production of cephalosporins,[2],about 7 μg/ml
same,Cephalosporin Production Volumetric,[3]; [4],12.3 µg/mL
same,Cephalosporin Production Specific,[3]; [4],3.6 µg/mg
same,Cephalosporin Production Volumetric,[3]; [5],5.2 µg/mL
same,Cephalosporin Production Specific,[3]; [5],1.7 µg/mg
same,Cephalosporin Production Volumetric,[3]; [6],6.3 µg/mL
same,Cephalosporin Production Specific,[3]; [6],7.0 µg/mg
same,Cephalosporin Production Volumetric,[3]; [7],4.3 µg/mL
same,Cephalosporin Production Specific,[3]; [7],1.5 µg/mg
same,Cephalosporin Production Volumetric,[3]; cells grown in MT,5.3 µg/mL
same,Cephalosporin Production Specific,[3]; cells grown in MT,1.5 µg/mg
